Results published in US20250230193A1, “CYCLIC COMPOUND HAVING SELECTIVE KRAS INHIBITORY EFFECT ON HRAS AND NRAS” (CHUGAI SEIYAKU KABUSHIKI KAISHA, priority 2022, published 2025).

Assays:
[1] = biological target: GDP-bound HRAS wild-type protein (Homo sapiens, UniProt P01112); test: Binding to HRAS by surface plasmon resonance (SPR), Single Cycle Kinetics; settings: for HRAS/KRAS (ratio of KD value for HRAS to KD value for KRAS) / HRAS/KRAS (ratio of KD value with respect to HRAS to KD value with respect to KRAS): GDP-bound HRAS wild-type vs GDP-bound KRAS wild-type
Chain of GDP-bound HRAS wild-type protein (P01112 whole entry): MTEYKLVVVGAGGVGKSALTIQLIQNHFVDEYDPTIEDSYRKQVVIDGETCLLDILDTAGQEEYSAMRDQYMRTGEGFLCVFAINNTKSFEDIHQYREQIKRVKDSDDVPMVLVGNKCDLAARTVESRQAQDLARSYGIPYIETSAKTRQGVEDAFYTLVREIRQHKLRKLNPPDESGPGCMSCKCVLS

[2] = biological target: GDP-bound NRAS wild-type protein (Homo sapiens, UniProt P01111); test: Binding to NRAS by surface plasmon resonance (SPR), Single Cycle Kinetics; settings: for NRAS/KRAS (ratio of KD value for NRAS to KD value for KRAS) / NRAS/KRAS (ratio of KD value with respect to NRAS to KD value with respect to KRAS): GDP-bound NRAS wild-type vs GDP-bound KRAS wild-type
Chain of GDP-bound NRAS wild-type protein (P01111 whole entry): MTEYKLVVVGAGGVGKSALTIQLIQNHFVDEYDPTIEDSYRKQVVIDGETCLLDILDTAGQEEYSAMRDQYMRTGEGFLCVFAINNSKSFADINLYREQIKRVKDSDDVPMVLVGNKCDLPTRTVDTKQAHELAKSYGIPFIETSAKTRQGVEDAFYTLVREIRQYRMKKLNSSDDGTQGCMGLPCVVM

SMILES: CCO[C@@H]1C[C@H]2C(=O)NC3(CCC3)C(=O)N(C)[C@@H](C3CCCC3)C(=O)N(C)[C@H](C(=O)N(C)CCOC)CC(=O)N(C)[C@@H](CC(F)F)C(=O)N[C@@H]([C@@H](C)CC)C(=O)N(C)CC(=O)N(C)[C@H]3C/C=C\CCN(C3=O)[C@@H](Cc3ccc(C(F)(F)F)cc3)C(=O)N(C)CC(=O)N[C@@H](CCc3cc(F)c(C(F)(F)F)c(F)c3)C(=O)N2C1 [PP1320]
- HRAS/KRAS (ratio of KD value for GDP-bound HRAS wild-type protein to KD value for KRAS) ([1]; SPR, KD ratio class): A (a compound having 10 or more and less than 20 is denoted as A)
- NRAS/KRAS (ratio of KD value for GDP-bound NRAS wild-type protein to KD value for KRAS) ([2]; SPR, KD ratio class): A (a compound having 10 or more and less than 20 is denoted as A)

SMILES: CC[C@H](C)[C@@H]1NC(=O)[C@H](CC(F)(F)F)N(C)C(=O)C[C@@H](C(=O)N(C)C)N(C)C(=O)[C@H](C2CCCC2)N(C)C(=O)C2(CC(C)(C)C2)NC(=O)[C@@H]2C[C@H](C)CN2C(=O)[C@H](CCc2cc(F)c(C(F)(F)F)c(F)c2)NC(=O)CN(C)C(=O)[C@H](Cc2ccc(C(F)(F)F)cc2)N2CC/C=C\C[C@@H](C2=O)N(C)C(=O)CN(C)C1=O [PP1682]
- HRAS/KRAS (ratio of KD value for HRAS to KD value for KRAS) ([1]; KD ratio, SPR): A (a compound having 10 or more and less than 20 is denoted as A)
- NRAS/KRAS (ratio of KD value for NRAS to KD value for KRAS) ([2]; KD ratio, SPR): AA (a compound having 20 or more is denoted as AA)

SMILES: CCC[C@H]1C(=O)N[C@@H](CC(C)C)C(=O)N2C[C@@H](OC)C[C@H]2C(=O)N(C)[C@H]2C/C=C\CCN(C2=O)[C@@H](Cc2ccc(C)cc2)C(=O)N(C)CC(=O)N[C@@H](CCc2ccc(C(F)(F)F)c(OC)c2)C(=O)N2C[C@H](OCC)C[C@H]2C(=O)NC2(CCC2)C(=O)N(C)[C@@H](C2CCCC2)C(=O)N(C)[C@H](C(=O)N(C)C)CC(=O)N1C [PP2548]
- HRAS/KRAS (ratio of KD value with respect to GDP-bound HRAS wild-type protein to KD value with respect to KRAS) ([1]; KD ratio HRAS/KRAS, class symbols): B (a compound having 3 or more and less than 10 is denoted as B)
- NRAS/KRAS (ratio of KD value with respect to GDP-bound NRAS wild-type protein to KD value with respect to KRAS) ([2]; KD ratio NRAS/KRAS, class symbols): A (a compound having 10 or more and less than 20 is denoted as A)

SMILES: CCO[C@@H]1C[C@H]2C(=O)NC3(CCC3)C(=O)N(C)[C@@H](C3CCCC3)C(=O)N(C)[C@H](C(=O)N3CCOCC3)CC(=O)N(C)[C@@H](CC(C)C)C(=O)N[C@@H]([C@@H](C)CC)C(=O)N(C)CC(=O)N(C)[C@H]3CCCCCN(C3=O)[C@@H](Cc3ccc(F)c(C)c3)C(=O)N(C)CC(=O)N[C@@H](CCc3cc(F)c(C(F)(F)F)c(F)c3)C(=O)N2C1 [PP0922]
- HRAS/KRAS (ratio of KD value with respect to HRAS to KD value with respect to KRAS) ([1]; KD ratio, SPR): B (a compound having 3 or more and less than 10 is denoted as B)
- NRAS/KRAS (ratio of KD value with respect to NRAS to KD value with respect to KRAS) ([2]; KD ratio, SPR): B (a compound having 3 or more and less than 10 is denoted as B)

SMILES: CCCOC[C@H]1C(=O)N[C@@H]([C@@H](C)CC)C(=O)N(C2CC2)CC(=O)N(C)[C@H]2C/C=C\CCN(C2=O)[C@@H](Cc2ccc(C)cc2)C(=O)N(C)CC(=O)N[C@@H](CCc2ccc(C(F)(F)F)c(OC)c2)C(=O)N2C[C@H](OCC)C[C@H]2C(=O)N(C)C2(CCC2)C(=O)N(C)[C@@H](C(CC)CC)C(=O)N(C)[C@H](C(=O)N(C)C)CC(=O)N1C [PP2327]
- HRAS/KRAS (ratio of KD value with respect to HRAS to KD value with respect to KRAS) ([1]; SPR): A (a compound having 10 or more and less than 20 is denoted as A)
- NRAS/KRAS (ratio of KD value with respect to NRAS to KD value with respect to KRAS) ([2]; SPR): A (a compound having 10 or more and less than 20 is denoted as A)

SMILES: CCO[C@@H]1C[C@H]2C(=O)NC3(CCC3)C(=O)N(C)[C@@H](C3CCCC3)C(=O)N(C)[C@H](C(=O)N(C)C)CC(=O)N(C)[C@@H](CC3CCCC3)C(=O)N[C@@H]([C@@H](C)CC)C(=O)N(C)CC(=O)N(C)[C@H]3C/C=C\CCN(C3=O)[C@@H](Cc3ccc(C(F)(F)F)cc3)C(=O)N(C)CC(=O)N[C@@H](CCc3cc(F)c(C(F)(F)F)c(F)c3)C(=O)N2C1 [PP1112]
- HRAS/KRAS (ratio of KD value with respect to HRAS to KD value with respect to KRAS) ([1]; KD ratio, SPR): B (a compound having 3 or more and less than 10 is denoted as B)
- NRAS/KRAS (ratio of KD value with respect to NRAS to KD value with respect to KRAS) ([2]; KD ratio, SPR): A (a compound having 10 or more and less than 20 is denoted as A)

SMILES: CC[C@H](C)[C@@H]1NC(=O)[C@H](CC)N(C)C(=O)C[C@@H](C(=O)N(C)CC)N(C)C(=O)[C@H](C2CCCC2)N(C)C(=O)C2(CC(C)(C)C2)NC(=O)[C@@H]2C[C@@H](C)CN2C(=O)[C@H](CCc2ccc(C(F)(F)F)c(Cl)c2)NC(=O)CN(C)C(=O)[C@H](Cc2ccc(C)cc2)N2CC/C=C\C[C@@H](C2=O)N(C)C(=O)CN(C)C1=O [PP1876]
- HRAS/KRAS (ratio of KD value for HRAS to KD value for KRAS) ([1]; KD ratio, SPR): A (a compound having 10 or more and less than 20 is denoted as A)
- NRAS/KRAS (ratio of KD value for NRAS to KD value for KRAS) ([2]; KD ratio, SPR): A (a compound having 10 or more and less than 20 is denoted as A)

SMILES: CCO[C@@H]1C[C@H]2C(=O)NC3(CCCC3)C(=O)N(C)[C@@H](C3CCCC3)C(=O)N(C)[C@H](C(=O)N3CCOCC3)CC(=O)N(C)[C@@H](COC)C(=O)N[C@@H]([C@@H](C)CC)C(=O)NCC(=O)N(C)[C@H]3CCCCCN(C3=O)[C@@H](Cc3ccc(C(F)(F)F)cc3)C(=O)N(C)CC(=O)N[C@@H](CCc3cc(F)c(C(F)(F)F)c(F)c3)C(=O)N2C1 [PP0862]
- HRAS/KRAS (ratio of KD value with respect to HRAS to KD value with respect to KRAS) ([1]; KD ratio, SPR): B (a compound having 3 or more and less than 10 is denoted as B)
- NRAS/KRAS (ratio of KD value with respect to NRAS to KD value with respect to KRAS) ([2]; KD ratio, SPR): B (a compound having 3 or more and less than 10 is denoted as B)
